Measurements as given in the supplement of paper PMC11061612.

Experiments:
Test in all cases: Bliss excess, mean over the matrix (fraction); higher = more synergy
[1] = tested on: A549 (Lung Adenocarcinoma)
How it was run: (§1)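 Cell lines grown in DMEM/F12 or RPMI with 10% FBS were plated in 1536-well plates and held 24 hours at 37°C, 5% CO2 before 72 hours of exposure to two-drug dose matrices, with DMSO typically at 0.2%. CellTiter-Glo 2.0 luminescence gave viability, which was converted to inhibition. Vehicle wells were set to 0 and blank wells to 1. Combination Emax is the second-highest inhibition in the matrix, and Bliss excess is the observed combination effect minus the expected EA + EB − EA·EB, where EA and EB are the single-agent effects.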

8-MG-BA (Glioblastoma) = tested on: 8-MG-BA (Glioblastoma)
How it was run: as §1

[2] = tested on: TT2609-C02 (Thyroid Gland Carcinoma)
How it was run: as §1

IGR-37 (Melanoma) = tested on: IGR-37 (Melanoma)
How it was run: as §1

ARH-77 (Non-Cancerous) = tested on: ARH-77 (Non-Cancerous)
How it was run: as §1

[3] = tested on: NCI-H2066 (Squamous Cell Lung Carcinoma)
How it was run: as §1

[4] = tested on: TT (Thyroid Gland Carcinoma)
How it was run: as §1

NCI-H2591 (Mesothelioma) = tested on: NCI-H2591 (Mesothelioma)
How it was run: as §1

LN-405 (Glioblastoma) = tested on: LN-405 (Glioblastoma)
How it was run: as §1

[5] = tested on: A3-KAW (B-Cell Non-Hodgkin's Lymphoma)
How it was run: as §1

[6] = tested on: SK-MG-1 (Low Grade Glioma)
How it was run: as §1

[7] = tested on: CAL-29 (Bladder Carcinoma)
How it was run: as §1

[8] = tested on: PANC-10-05 (Pancreatic Carcinoma)
How it was run: as §1

[9] = tested on: VCaP (Prostate Carcinoma)
How it was run: as §1

[10] = tested on: NCI-H64 (Small Cell Lung Carcinoma)
How it was run: as §1

A498 (Kidney Carcinoma) = tested on: A498 (Kidney Carcinoma)
How it was run: as §1

[11] = tested on: HCC1954 (Breast Carcinoma)
How it was run: as §1

[12] = tested on: JSC-1 (B-Cell Non-Hodgkin's Lymphoma)
How it was run: as §1

GI-ME-N (Neuroblastoma) = tested on: GI-ME-N (Neuroblastoma)
How it was run: as §1

[13] = tested on: SK-MES-1 (Squamous Cell Lung Carcinoma)
How it was run: as §1

Compound	Bliss excess [1]	Bliss excess (8-MG-BA (Glioblastoma))	Bliss excess [2]	Bliss excess (IGR-37 (Melanoma))	Bliss excess (ARH-77 (Non-Cancerous))	Bliss excess [3]	Bliss excess [4]	Bliss excess (NCI-H2591 (Mesothelioma))	Bliss excess (LN-405 (Glioblastoma))	Bliss excess [5]	Bliss excess [6]	Bliss excess [7]	Bliss excess [8]	Bliss excess [9]	Bliss excess [10]	Bliss excess (A498 (Kidney Carcinoma))	Bliss excess [11]	Bliss excess [12]	Bliss excess (GI-ME-N (Neuroblastoma))	Bliss excess [13]
COc1cccc(OCCCN)c1-c1cc(Nc2cnc(C#N)cn2)n[nH]1 [Prexasertib] + CCc1c2c(nc3ccc(O)cc13)-c1cc3c(c(=O)n1C2)COC(=O)[C@]3(O)CC [SN-38] (first compound max 1 µM, 7x7, partner max 0.3 µM)	-0.0361	-0.0166	-0.0467	-0.0727	-0.0304	0.0285	-0.0758	-0.0353	0.0786	0.0247	0.0719	0.002	-0.0372	-0.0541	0.0021	-0.105	0.123	-0.0739	-0.0326	-0.0507
COc1cccc(OCCCN)c1-c1cc(Nc2cnc(C#N)cn2)n[nH]1 [Prexasertib] + CN(C)CCCOc1ccc(-c2ccc3ncc4c(c3c2)n(C2CCOCC2)c(=O)n4C)cn1 [AZD0156] (first compound max 1 µM, 7x7, partner max 1 µM)	-0.0276	-0.0349	-0.0426	0.0026	0.0018	-0.0379	-0.004	-0.0141	0.0013	0.0134	-0.0321	-0.0479	-0.0435	-0.0463	-0.0359	0.034	-0.0298	-0.0111	0.0737	-0.0471
COc1cccc(OCCCN)c1-c1cc(Nc2cnc(C#N)cn2)n[nH]1 [Prexasertib] + C[C@@H]1COCCN1C2=NC(=NC(=C2)C3(CC3)[S@](=N)(=O)C)C4=C5C=CNC5=NC=C4 [AZD6738] (first compound max 1 µM, 7x7, partner max 10 µM)	0.0241	-0.0239	-0.0002	-0.0621	0.0006	-0.0154	0.0244	0.0187	-0.136	0.0104	-0.0012	-0.0331	0.0258	-0.0267	-0.0184	-0.0514	0.0079	-0.0089	0.0681	-0.0205
COc1cccc(OCCCN)c1-c1cc(Nc2cnc(C#N)cn2)n[nH]1 [Prexasertib] + Cc1cc2ncnn2cc1Nc1ncc2c(n1)n(C1CCOCC1)c(=O)n2C [AZD7648] (first compound max 1 µM, 7x7, partner max 10 µM)	0.0532	-0.058	-0.0157	-0.058	-0.0015	0.0214	-0.0144	-0.0079	-0.017	0.0126	-0.0257	-0.0754	-0.038	-0.0509	-0.0242	-0.0206	-0.0179	-0.0189	0.107	-0.0411
COc1cccc(OCCCN)c1-c1cc(Nc2cnc(C#N)cn2)n[nH]1 [Prexasertib] + O=C(c1cc(Cc2n[nH]c(=O)c3ccccc23)ccc1F)N1CCN(C(=O)C2CC2)CC1 [Olaparib] (first compound max 1 µM, 7x7, partner max 10 µM)	-0.0109	0.0262	-0.0062	-0.0327	-0.0485	-0.0492	-0.141	-0.0683	0.0837	-0.0146	0.0026	-0.185	-0.0424	-0.041	-0.0438	-0.0622	-0.0566	-0.0179	-0.0649	-0.0174
COc1cc2c(cc1OCCCCCOc1cc3c(cc1OC)C(=O)N1C=C(C)C[C@H]1C=N3)N=C[C@@H]1CC(C)=CN1C2=O [SG3199] + O=C(c1cc(Cc2n[nH]c(=O)c3ccccc23)ccc1F)N1CCN(C(=O)C2CC2)CC1 [Olaparib] (first compound max 0.001 µM, 7x7, partner max 10 µM)	-0.0226	0.011	-0.0234	-0.0238	-0.0466	-0.0457	-0.0645	-0.0414	0.0323	-0.0286	-0.0009	-0.0154	-0.0598	-0.0455	-0.0539	-0.0336	-0.0356	-0.0344	-0.036	-0.0267
CCc1c2c(nc3ccc(O)cc13)-c1cc3c(c(=O)n1C2)COC(=O)[C@]3(O)CC [SN-38] + CN(C)CCCOc1ccc(-c2ccc3ncc4c(c3c2)n(C2CCOCC2)c(=O)n4C)cn1 [AZD0156] (first compound max 0.3 µM, 7x7, partner max 1 µM)	0.0128	0.0392	0.0068	-0.0327	0.0037	-0.0517	-0.119	-0.0118	-0.0028	0.0988	0.23	-0.028	-0.0858	-0.018	-0.0365	-0.0444	0.035	-0.0046	-0.0089	-0.0272
C[C@@H](c1ccc2nccn2c1)n1nnc2ncc(-c3cnn(C)c3)nc21 [Savolitinib] + CC1(C)CCC(CN2CCN(c3ccc(C(=O)NS(=O)(=O)c4ccc(NCC5CCOCC5)c([N+](=O)[O-])c4)c(Oc4cnc5[nH]ccc5c4)c3)CC2)=C(c2ccc(Cl)cc2)C1 [Venetoclax] (first compound max 1 µM, 7x7, partner max 1 µM)	-0.0378	-0.025	-0.1	-0.0519	-0.0092	-0.0524	-0.0724	-0.0802	-0.0464	-0.023	-0.0549	-0.0655	-0.0986	-0.0325	0.0032	-0.0973	-0.0189	-0.0638	-0.0925	-0.0505
C[C@@H](c1ccc2nccn2c1)n1nnc2ncc(-c3cnn(C)c3)nc21 [Savolitinib] + Cc1c2c(nn1C)CSCc1cc(n(C)n1)CSc1cc(c3ccccc3c1)OCCCc1c(C(=O)O)n(C)c3c-2c(Cl)ccc13 [AZD5991] (first compound max 1 µM, 7x7, partner max 1 µM)	-0.0279	-0.0303	-0.0947	0.0454	-0.0181	-0.0455	-0.0102	-0.0549	0.0023	-0.0499	-0.0648	-0.0474	-0.0994	-0.0422	-0.021	-0.032	-0.0525	-0.0434	-0.0778	-0.0361
Cn1cnc2c(F)c(Nc3ccc(Br)cc3Cl)c(C(=O)NOCCO)cc21 [Selumetinib] + C=CCn1c(=O)c2cnc(Nc3ccc(N4CCN(C)CC4)cc3)nc2n1-c1cccc(C(C)(C)O)n1 [AZD1775] (first compound max 10 µM, partner max 1 µM)	-0.0741	-0.0543	-0.0169	0.0122	-0.0518	-0.0776	-0.0599	-0.0318	-0.0962	-0.0575	-0.106	0.0074	-0.0898	-0.063	-0.005	-0.0218	-0.0005	-0.0432	-0.064	-0.0469
Cn1cnc2c(F)c(Nc3ccc(Br)cc3Cl)c(C(=O)NOCCO)cc21 [Selumetinib] + CC(C)n1c(=O)n(C)c2cnc3cc(F)c(-c4ccc(OCCCN5CCCCC5)nc4)cc3c21 [AZD1390] (first compound max 10 µM, 7x7, partner max 0.3 µM)	-0.0534	-0.018	-0.0387	-0.0398	-0.007	-0.061	-0.0364	-0.0585	-0.0518	0.0678	-0.049	-0.0073	-0.0783	-0.0387	-0.0279	-0.0489	-0.0277	-0.0477	-0.0399	-0.0487
Cn1cnc2c(F)c(Nc3ccc(Br)cc3Cl)c(C(=O)NOCCO)cc21 [Selumetinib] + CCN(CCO)CCCOc1ccc2c(Nc3cc(CC(=O)Nc4cccc(F)c4)[nH]n3)ncnc2c1 [AZD2811] (first compound max 10 µM, 7x7, partner max 1 µM)	0.0248	-0.0181	0.0055	-0.0274	0.0498	-0.0322	-0.0472	-0.0459	-0.0367	0.165	-0.0245	0.0023	-0.0367	-0.0336	0.0312	0.002	-0.0098	0.203	-0.0614	-0.048
Cn1cnc2c(F)c(Nc3ccc(Br)cc3Cl)c(C(=O)NOCCO)cc21 [Selumetinib] + C[C@@H]1COCCN1C2=NC(=NC(=C2)C3(CC3)[S@](=N)(=O)C)C4=C5C=CNC5=NC=C4 [AZD6738] (first compound max 10 µM, 7x7, partner max 10 µM)	-0.0173	-0.0051	0.0773	-0.0122	0.029	0.004	-0.0154	0.0292	-0.0448	0.061	0.0158	0.0155	-0.07	-0.0602	-0.0464	-0.023	-0.0327	0.0244	-0.0028	-0.025
CC(=O)Nc1cccc(-n2c(=O)n(C3CC3)c(=O)c3c(Nc4ccc(I)cc4F)n(C)c(=O)c(C)c32)c1 [Trametinib] + Cc1nc(-c2cn3c(n2)-c2ccc(-c4cnn(C(C)(C)C(N)=O)c4)cc2OCC3)n(C(C)C)n1 [Taselisib] (first compound max 1 µM, 7x7, partner max 10 µM)	0.0568	0.143	0.0909	0.0677	0.0785	0.0386	0.0288	0.0206	0.0342	0.173	0.144	0.136	0.0968	0.0444	0.0284	0.0344	0.0455	0.218	0.0954	0.198
CC1(C)CCC(CN2CCN(c3ccc(C(=O)NS(=O)(=O)c4ccc(NCC5CCOCC5)c([N+](=O)[O-])c4)c(Oc4cnc5[nH]ccc5c4)c3)CC2)=C(c2ccc(Cl)cc2)C1 [Venetoclax] + C1CN(CCC1(C(=O)N[C@@H](CCO)C2=CC=C(C=C2)Cl)N)C3=NC=NC4=C3C=CN4 [Capivasertib] (first compound max 1 µM, 7x7, partner max 3 µM)	-0.059	0.0442	-0.0391	-0.0448	0.054	-0.0142	-0.103	-0.0453	-0.0712	-0.0468	-0.0649	-0.0319	-0.0656	-0.026	0.0083	-0.121	0.0021	-0.0613	-0.0685	-0.044
